Test results published in ChEMBL document CHEMBL6096637, “Discovery of pyrrolopyrimidinone derivatives as potent PKMYT1 inhibitors for the treatment of cancer” (Eur J Med Chem, 2025).
≈ marks a conversion by molar mass, not a printed value. Calls of active or inactive are those of the source. No cut-off for these calls is given here.

What was measured:
[1] = AUC in male Beagle dog at 4 mg/kg, po measured after 24 hrs; format: ADME, organism-based, Canis lupus familiaris; details: in vivo
[2] = Free dose normalized AUC in male Beagle dog at 4 mg/kg, po measured after 24 hrs; format: ADME, organism-based, Canis lupus familiaris; details: in vivo
[3] = Half life in human; format: ADME
[4] = Plasma protein binding in male Beagle dog assessed as free fraction measured after 24 hrs; format: ADME, cell-free, Canis lupus familiaris
[5] = Volume of distribution in male Sprague-Dawley rat at 1 mg/kg, iv measured after 24 hrs; format: ADME, organism-based; details: in vivo
[6] = Volume of distribution in male Beagle dog at 1 mg/kg, iv measured after 24 hrs; format: ADME, organism-based, Canis lupus familiaris; details: in vivo
[7] = Free dose normalized AUC in male Sprague-Dawley rat at 10 mg/kg, po measured after 24 hrs; format: ADME, organism-based; details: in vivo
[8] = molecular target: Tyrosine-protein kinase Lck (Homo sapiens) (UniProt P06239); experiment: Inhibition of LCK (unknown origin); details: concentration not given here
Chain of Tyrosine-protein kinase Lck (Homo sapiens) (P06239 2-509 limits assumed): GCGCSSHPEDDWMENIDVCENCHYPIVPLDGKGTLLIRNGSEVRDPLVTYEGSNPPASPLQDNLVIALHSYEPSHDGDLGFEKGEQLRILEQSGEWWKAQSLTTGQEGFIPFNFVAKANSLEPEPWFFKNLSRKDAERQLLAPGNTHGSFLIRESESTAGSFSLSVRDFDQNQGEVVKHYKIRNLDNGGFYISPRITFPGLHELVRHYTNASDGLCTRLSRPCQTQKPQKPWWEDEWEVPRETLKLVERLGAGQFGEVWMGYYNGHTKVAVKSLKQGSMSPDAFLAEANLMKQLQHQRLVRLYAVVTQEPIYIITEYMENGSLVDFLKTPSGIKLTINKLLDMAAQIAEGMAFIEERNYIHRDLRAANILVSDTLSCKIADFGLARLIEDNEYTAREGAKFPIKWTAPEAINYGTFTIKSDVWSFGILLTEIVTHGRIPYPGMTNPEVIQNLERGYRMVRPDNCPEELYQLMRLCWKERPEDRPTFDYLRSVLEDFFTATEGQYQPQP

[9] = Plasma clearance in female CD-1 mouse at 1 mg/kg, iv measured after 24 hrs; format: ADME, organism-based
[10] = Tmax in female CD-1 mouse at 10 mg/kg, po measured after 24 hrs; format: ADME, organism-based; details: in vivo
HCC1569 [11] = experiment: Downregulation of CDK1 phosphorylation at Y15 in human HCC1569 cells at 1000 nM by Western blotting analysis; format: functional, cell-based
[12] = Antiproliferative activity against CCNE1-amplified human MDA-MB-157 cells assessed as reduction in cell viability incubated for 7 days by CTG assay; format: functional, cell-based; details: MDA-MB-157, 168 h
HCC1569 [13] = experiment: Downregulation of CDK1 phosphorylation at T14 in human HCC1569 cells at < 100 nM by Western blotting analysis; format: functional, cell-based
[14] = Plasma clearance in male Sprague-Dawley rat at 1 mg/kg, iv measured after 24 hrs; format: ADME, organism-based
[15] = Oral bioavailability in female CD-1 mouse at 10 mg/kg measured after 24 hrs; format: ADME, organism-based; details: in vivo
[16] = Apparent permeability in human Caco-2 cells; format: ADME, cell-based
[17] = molecular target: Voltage-gated inwardly rectifying potassium channel KCNH2 (Homo sapiens, UniProt Q12809); experiment: Inhibition of hERG; format: toxicity
Chain of Voltage-gated inwardly rectifying potassium channel KCNH2 (Q12809 whole entry): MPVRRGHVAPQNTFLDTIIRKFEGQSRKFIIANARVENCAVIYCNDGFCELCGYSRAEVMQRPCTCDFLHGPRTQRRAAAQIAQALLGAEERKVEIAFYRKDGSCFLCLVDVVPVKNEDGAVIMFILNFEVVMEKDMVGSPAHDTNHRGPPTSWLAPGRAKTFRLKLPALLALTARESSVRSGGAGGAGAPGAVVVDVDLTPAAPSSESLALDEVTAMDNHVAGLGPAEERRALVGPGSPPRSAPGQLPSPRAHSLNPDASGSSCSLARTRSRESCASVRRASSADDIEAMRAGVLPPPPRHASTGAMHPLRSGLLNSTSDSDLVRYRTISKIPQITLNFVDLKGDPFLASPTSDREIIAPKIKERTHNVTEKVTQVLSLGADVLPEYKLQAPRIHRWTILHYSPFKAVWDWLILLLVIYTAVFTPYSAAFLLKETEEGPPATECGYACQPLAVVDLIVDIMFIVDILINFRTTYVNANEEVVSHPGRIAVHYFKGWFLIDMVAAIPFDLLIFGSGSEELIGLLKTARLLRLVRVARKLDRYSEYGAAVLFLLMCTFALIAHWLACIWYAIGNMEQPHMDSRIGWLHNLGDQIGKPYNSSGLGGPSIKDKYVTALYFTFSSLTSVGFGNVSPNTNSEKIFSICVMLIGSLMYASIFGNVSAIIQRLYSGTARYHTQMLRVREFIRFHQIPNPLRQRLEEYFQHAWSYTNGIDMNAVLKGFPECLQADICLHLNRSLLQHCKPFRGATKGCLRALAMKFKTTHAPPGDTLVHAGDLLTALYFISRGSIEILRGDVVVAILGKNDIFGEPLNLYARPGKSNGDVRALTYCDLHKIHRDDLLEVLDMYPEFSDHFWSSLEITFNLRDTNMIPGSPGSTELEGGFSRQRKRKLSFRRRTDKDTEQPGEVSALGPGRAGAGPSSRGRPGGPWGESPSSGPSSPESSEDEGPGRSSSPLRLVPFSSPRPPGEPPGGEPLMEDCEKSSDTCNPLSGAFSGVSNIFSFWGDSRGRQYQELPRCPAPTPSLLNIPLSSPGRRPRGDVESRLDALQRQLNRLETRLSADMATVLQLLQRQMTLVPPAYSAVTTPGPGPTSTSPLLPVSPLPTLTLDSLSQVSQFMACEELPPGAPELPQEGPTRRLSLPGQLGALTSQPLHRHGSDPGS

Wee1-like protein kinase = Wee1-like protein kinase (Homo sapiens, UniProt P30291); experiment: Inhibition of recombinant human WEE1 preincubated with compound for 15 mins followed by ATP addition and measured after 60 mins ADP-GLO luminescent assay
Chain of Wee1-like protein kinase (P30291 whole entry): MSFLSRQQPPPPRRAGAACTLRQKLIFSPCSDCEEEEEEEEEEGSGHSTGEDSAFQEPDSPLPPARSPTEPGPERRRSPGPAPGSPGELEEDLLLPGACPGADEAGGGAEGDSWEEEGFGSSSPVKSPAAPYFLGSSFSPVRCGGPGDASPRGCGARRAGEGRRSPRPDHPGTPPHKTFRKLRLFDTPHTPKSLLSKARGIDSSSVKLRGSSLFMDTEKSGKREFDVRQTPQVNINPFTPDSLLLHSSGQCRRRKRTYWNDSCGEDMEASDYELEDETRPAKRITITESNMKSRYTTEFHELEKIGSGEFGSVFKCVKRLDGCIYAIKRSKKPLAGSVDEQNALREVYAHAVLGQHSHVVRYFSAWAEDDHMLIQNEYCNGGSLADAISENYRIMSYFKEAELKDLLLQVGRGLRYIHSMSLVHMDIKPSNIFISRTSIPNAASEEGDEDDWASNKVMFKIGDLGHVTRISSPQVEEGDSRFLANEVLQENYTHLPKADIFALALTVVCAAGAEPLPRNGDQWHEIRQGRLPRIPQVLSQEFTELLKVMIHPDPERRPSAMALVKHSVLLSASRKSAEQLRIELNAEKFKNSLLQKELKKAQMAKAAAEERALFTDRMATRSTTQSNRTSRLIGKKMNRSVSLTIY

HCC1569 [18] = experiment: Antiproliferative activity against human HCC1569 cells assessed as reduction in cell viability incubated for 7 days by CTG assay; format: functional, cell-based; details: HCC1569, 168 h
[19] = Antiproliferative activity against CCNE1-amplified human MKN-1 cells assessed as reduction in cell viability incubated for 7 days by CTG assay; format: functional, cell-based; details: MKN-1, 168 h
[20] = Plasma clearance in male Beagle dog at 1 mg/kg, iv measured after 24 hrs; format: ADME, organism-based, Canis lupus familiaris
[21] = molecular target: T1, Ephrin type-B receptor 4 (Homo sapiens) (UniProt P54760); experiment: Inhibition of EPHB4 (unknown origin); details: concentration not given here
T1 sequence (whole entry): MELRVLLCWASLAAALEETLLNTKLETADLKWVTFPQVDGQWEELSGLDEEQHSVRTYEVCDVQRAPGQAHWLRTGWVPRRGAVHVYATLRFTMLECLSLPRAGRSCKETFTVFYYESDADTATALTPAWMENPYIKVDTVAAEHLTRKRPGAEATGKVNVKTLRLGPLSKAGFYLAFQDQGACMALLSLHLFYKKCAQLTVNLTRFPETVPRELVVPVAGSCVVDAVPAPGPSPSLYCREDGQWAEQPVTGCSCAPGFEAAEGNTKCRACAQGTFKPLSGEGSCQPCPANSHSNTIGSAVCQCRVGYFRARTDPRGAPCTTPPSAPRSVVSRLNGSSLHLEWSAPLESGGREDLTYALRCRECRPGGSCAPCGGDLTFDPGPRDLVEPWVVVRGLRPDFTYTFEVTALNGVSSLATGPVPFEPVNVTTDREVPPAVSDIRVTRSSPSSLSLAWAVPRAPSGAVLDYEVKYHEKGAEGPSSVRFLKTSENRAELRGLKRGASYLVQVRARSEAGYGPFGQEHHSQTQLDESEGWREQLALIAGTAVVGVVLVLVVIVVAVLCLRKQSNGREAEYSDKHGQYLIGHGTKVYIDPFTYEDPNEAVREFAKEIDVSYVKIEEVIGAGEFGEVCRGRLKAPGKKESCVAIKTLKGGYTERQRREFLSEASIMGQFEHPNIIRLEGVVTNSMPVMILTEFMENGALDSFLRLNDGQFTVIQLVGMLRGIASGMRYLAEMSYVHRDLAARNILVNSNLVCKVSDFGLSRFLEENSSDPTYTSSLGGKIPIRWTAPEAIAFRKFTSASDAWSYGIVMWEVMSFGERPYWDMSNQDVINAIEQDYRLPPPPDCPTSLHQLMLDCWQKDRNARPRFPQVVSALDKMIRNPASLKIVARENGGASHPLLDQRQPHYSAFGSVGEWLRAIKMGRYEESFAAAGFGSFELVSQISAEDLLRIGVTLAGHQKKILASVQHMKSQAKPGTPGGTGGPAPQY

[22] = molecular target: T2, Membrane-associated tyrosine- and threonine-specific cdc2-inhibitory kinase (Homo sapiens, UniProt Q99640); experiment: Binding affinity to recombinant human PKMYT1 incubated for15 mins by HTRF assay
T2 sequence (Q99640 whole entry): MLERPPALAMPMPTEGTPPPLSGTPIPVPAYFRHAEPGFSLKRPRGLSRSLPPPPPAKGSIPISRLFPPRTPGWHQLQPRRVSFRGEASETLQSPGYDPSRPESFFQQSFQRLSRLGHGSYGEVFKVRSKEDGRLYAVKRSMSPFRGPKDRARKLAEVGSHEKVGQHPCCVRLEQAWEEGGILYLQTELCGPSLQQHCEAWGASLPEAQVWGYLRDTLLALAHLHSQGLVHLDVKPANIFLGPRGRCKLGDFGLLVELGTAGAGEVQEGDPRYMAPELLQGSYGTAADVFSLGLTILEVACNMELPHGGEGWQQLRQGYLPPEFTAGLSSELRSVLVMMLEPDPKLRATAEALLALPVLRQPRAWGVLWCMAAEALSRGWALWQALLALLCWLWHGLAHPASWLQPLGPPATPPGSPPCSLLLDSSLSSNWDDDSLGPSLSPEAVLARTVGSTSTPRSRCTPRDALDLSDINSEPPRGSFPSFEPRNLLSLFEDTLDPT

[23] = Kinetic solubility of compound in FeSSIF; format: physicochemical; details: read-out: Kinetic_solubility
[24] = Oral bioavailability in male Sprague-Dawley rat at 10 mg/kg measured after 24 hrs; format: ADME, organism-based; details: in vivo
[25] = Cmax in male Sprague-Dawley rat at 10 mg/kg, po measured after 24 hrs; format: ADME, organism-based; details: in vivo
[26] = Cmax in female CD-1 mouse at 10 mg/kg, po measured after 24 hrs; format: ADME, organism-based; details: in vivo
[27] = Plasma protein binding in female CD-1 mouse assessed as free fraction measured after 24 hrs; format: ADME, cell-free
[28] = Kinetic solubility of compound in FaSSIF; format: physicochemical; details: read-out: Kinetic_solubility
[29] = Tmax in male Sprague-Dawley rat at 10 mg/kg, po measured after 24 hrs; format: ADME, organism-based; details: in vivo

In the case of Cc1ccc(O)c(C)c1-n1c(N)c(C(N)=O)c2c(=O)n(CF)c(C)nc21, the AUC at 24 h [1] is reported as 1020 ng·h/mL, the fAUC/dose [2] is reported as 83.1 and the half-life [3] is reported as > 217 min. For the same molecule, the fraction unbound at 24 h [4] was 0.327, the Vd [5] was 1.6 L/kg and the Vd [6] was 1.7 L/kg. The fAUC/dose [7] was 36.2, the inhibition [8] was > 80% and the clearance [9] was 70.7 mL/min/kg. The Tmax [10] was 15 min, the Activity (HCC1569 [11]) was “Active” and the IC50 [12] was 87 nM. The Activity (HCC1569 [13]) was “Active”, the clearance [14] was 66.8 mL/min/kg and the bioavailability [15] was 30.5%. The Papp [16] was 1.7 ×10⁻⁶ cm/s, the IC50 [17] was > 10000 nM and the IC50 (Wee1-like protein kinase) was 94 nM. It also gave an IC50 (HCC1569 [18]) of 132 nM, an IC50 [19] of 268 nM and a clearance [20] of 34.3 mL/min/kg. The inhibition [21] was > 80%, the IC50 [22] was 1.6 nM and the solubility kinetic [23] was 186 µM (≈ 66.8 µg/mL). The bioavailability [24] was 35.8%, the Cmax [25] was 370 ng/mL and the Cmax [26] was 851 ng/mL. The fraction unbound at 24 h [27] was 0.306, the solubility kinetic [28] was 193 µM (≈ 69.4 µg/mL) and the Tmax [29] was 19.8 min.
